In US20120122860A1, “SOLID FORMS OF SULFONAMIDES AND AMINO ACIDS” (Plexxikon, Inc., priority 2009, published 2012):

Experiments:
Fms = Fms (Homo sapiens, UniProt P07333); assay: Kinase activity assay, Fms
TEC = target: T1, TEC (Homo sapiens, UniProt P42680); assay: Kinase activity assay, TEC
T1 sequence (P42680 1-631): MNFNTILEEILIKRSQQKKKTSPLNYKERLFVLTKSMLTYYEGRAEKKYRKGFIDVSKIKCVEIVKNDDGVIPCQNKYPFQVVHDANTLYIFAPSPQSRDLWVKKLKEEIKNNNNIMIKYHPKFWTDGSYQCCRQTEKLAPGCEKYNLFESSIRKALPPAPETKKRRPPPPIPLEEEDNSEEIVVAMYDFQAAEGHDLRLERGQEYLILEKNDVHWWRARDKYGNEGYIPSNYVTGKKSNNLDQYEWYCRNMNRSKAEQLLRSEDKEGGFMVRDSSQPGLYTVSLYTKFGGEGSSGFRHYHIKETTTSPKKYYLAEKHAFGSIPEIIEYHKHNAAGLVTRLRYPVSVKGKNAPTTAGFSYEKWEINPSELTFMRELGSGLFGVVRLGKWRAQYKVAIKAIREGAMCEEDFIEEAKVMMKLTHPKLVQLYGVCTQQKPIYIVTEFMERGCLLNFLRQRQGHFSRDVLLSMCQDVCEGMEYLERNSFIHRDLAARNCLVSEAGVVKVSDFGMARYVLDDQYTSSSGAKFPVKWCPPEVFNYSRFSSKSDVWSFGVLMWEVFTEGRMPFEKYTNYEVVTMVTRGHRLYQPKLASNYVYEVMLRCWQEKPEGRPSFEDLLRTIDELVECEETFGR

Kit = Kit (Homo sapiens, UniProt P10721); assay: Kinase activity assay, Kit
Kdr = Kdr (Homo sapiens, UniProt P35968); assay: Kinase activity assay, Kdr
B-Raf V600E = B-Raf V600E (Homo sapiens, UniProt P15056, V600E); assay: Kinase activity assay, B-Raf V600E; assay type: biochemical; settings: read-out: activity toward kinase B-Raf V600E, IC50
Src = Src (Homo sapiens, UniProt P12931); assay: Kinase activity assay, Src
C-Raf = C-Raf (Homo sapiens, UniProt P04049); assay: Kinase activity assay, C-Raf
B-Raf = B-Raf (Homo sapiens, UniProt P15056); assay: Kinase activity assay, B-Raf; assay type: biochemical; settings: read-out: activity toward kinase B-Raf, IC50

Measured: IC50

Sequence of Kdr (P35968 20-1356): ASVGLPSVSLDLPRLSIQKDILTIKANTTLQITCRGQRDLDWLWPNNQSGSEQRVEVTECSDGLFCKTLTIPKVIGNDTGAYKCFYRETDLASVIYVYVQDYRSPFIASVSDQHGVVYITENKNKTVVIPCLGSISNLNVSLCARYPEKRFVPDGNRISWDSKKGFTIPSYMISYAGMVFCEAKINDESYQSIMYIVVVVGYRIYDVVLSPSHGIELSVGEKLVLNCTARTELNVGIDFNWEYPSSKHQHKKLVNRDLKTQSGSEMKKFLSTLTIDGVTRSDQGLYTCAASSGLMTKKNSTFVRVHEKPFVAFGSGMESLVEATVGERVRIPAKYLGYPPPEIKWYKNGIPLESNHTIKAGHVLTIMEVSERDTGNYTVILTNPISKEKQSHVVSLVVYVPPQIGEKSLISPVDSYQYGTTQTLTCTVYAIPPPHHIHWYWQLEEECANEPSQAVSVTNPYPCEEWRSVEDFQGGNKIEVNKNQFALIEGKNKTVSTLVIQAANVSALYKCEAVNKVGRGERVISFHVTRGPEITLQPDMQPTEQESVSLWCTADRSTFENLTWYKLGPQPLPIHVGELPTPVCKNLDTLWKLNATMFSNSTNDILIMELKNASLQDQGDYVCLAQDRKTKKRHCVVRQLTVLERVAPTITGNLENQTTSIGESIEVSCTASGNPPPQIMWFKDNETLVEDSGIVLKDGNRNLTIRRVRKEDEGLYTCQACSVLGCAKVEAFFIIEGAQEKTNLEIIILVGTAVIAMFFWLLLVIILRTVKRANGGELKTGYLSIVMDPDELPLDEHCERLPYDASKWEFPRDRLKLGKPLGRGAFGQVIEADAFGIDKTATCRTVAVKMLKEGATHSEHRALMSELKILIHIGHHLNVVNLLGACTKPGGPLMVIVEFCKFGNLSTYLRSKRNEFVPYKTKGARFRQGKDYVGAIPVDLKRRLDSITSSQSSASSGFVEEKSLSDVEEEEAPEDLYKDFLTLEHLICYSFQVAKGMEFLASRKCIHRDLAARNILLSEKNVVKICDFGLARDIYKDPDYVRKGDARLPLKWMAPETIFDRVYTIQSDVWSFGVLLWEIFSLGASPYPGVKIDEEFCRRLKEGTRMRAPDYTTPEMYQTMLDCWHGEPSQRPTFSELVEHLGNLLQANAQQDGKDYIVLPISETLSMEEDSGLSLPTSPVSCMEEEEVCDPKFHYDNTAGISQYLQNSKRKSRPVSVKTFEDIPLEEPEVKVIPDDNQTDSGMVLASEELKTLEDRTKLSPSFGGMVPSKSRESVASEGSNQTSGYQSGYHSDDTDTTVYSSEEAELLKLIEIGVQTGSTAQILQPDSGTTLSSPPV
Sequence of Kit (P10721 26-976): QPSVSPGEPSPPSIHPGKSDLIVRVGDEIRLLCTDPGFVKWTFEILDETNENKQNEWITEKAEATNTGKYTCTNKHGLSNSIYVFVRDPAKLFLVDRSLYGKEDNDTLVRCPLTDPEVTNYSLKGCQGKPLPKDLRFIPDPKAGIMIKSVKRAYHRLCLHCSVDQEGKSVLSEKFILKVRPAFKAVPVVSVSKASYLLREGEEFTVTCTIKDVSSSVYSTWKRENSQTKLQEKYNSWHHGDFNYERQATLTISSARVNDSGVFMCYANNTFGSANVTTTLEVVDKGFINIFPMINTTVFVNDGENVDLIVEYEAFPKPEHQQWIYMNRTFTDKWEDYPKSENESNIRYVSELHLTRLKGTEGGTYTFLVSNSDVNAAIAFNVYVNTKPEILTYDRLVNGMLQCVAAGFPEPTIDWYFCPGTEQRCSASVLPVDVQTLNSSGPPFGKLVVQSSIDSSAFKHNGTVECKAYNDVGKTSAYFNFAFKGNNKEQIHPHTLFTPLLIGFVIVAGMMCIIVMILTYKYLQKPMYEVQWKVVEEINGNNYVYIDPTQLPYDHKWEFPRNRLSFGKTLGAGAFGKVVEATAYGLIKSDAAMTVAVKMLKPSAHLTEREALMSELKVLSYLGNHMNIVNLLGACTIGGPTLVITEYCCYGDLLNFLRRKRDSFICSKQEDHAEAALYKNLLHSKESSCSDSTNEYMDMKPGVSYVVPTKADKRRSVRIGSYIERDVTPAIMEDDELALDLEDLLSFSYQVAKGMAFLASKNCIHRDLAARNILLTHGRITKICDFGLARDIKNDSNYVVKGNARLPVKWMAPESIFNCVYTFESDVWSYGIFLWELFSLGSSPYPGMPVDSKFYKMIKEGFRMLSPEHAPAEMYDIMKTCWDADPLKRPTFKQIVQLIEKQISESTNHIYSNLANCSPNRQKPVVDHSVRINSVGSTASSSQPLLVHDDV
Sequence of C-Raf (P04049 whole entry): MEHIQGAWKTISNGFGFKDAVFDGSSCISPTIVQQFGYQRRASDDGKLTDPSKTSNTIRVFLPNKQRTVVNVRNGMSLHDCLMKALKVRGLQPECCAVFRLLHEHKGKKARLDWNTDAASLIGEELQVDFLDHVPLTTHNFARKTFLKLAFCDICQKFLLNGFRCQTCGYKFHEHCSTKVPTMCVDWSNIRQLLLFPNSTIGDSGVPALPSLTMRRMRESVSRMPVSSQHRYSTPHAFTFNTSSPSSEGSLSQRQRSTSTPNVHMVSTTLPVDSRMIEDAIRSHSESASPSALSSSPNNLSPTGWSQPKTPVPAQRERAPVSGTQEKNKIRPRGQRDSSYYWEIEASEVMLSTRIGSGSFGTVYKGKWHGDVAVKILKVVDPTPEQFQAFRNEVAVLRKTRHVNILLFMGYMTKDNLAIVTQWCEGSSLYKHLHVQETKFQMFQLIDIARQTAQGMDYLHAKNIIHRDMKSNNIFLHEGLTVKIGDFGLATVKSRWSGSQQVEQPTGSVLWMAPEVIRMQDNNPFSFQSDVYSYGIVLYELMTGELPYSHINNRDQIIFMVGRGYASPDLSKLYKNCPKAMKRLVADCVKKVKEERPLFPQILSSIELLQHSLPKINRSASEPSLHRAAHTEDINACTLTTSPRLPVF
Sequence of Fms (P07333 20-972): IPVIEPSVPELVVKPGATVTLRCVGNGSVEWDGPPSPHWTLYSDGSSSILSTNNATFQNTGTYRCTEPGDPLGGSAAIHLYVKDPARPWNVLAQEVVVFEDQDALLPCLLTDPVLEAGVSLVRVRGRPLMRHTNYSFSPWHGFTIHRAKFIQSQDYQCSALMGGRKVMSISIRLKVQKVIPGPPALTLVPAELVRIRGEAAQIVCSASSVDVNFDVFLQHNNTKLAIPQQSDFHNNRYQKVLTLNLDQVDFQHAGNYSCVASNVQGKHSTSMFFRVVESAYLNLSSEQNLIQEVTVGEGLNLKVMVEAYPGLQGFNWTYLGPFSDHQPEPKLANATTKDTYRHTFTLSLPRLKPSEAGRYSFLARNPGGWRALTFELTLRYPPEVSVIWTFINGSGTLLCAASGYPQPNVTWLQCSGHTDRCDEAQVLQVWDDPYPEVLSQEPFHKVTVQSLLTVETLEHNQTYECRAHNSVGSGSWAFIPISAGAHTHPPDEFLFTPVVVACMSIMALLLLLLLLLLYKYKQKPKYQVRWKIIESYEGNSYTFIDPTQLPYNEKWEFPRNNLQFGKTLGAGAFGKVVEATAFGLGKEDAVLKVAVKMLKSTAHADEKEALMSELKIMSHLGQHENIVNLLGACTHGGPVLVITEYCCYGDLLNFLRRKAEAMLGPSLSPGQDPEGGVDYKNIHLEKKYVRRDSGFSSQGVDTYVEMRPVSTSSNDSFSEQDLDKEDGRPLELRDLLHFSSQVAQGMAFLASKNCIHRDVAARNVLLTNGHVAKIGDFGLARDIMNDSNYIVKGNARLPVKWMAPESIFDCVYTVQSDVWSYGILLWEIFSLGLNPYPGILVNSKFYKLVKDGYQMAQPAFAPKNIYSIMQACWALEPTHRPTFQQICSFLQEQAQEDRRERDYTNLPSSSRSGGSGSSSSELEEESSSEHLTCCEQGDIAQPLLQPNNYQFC
Sequence of B-Raf (P15056 whole entry): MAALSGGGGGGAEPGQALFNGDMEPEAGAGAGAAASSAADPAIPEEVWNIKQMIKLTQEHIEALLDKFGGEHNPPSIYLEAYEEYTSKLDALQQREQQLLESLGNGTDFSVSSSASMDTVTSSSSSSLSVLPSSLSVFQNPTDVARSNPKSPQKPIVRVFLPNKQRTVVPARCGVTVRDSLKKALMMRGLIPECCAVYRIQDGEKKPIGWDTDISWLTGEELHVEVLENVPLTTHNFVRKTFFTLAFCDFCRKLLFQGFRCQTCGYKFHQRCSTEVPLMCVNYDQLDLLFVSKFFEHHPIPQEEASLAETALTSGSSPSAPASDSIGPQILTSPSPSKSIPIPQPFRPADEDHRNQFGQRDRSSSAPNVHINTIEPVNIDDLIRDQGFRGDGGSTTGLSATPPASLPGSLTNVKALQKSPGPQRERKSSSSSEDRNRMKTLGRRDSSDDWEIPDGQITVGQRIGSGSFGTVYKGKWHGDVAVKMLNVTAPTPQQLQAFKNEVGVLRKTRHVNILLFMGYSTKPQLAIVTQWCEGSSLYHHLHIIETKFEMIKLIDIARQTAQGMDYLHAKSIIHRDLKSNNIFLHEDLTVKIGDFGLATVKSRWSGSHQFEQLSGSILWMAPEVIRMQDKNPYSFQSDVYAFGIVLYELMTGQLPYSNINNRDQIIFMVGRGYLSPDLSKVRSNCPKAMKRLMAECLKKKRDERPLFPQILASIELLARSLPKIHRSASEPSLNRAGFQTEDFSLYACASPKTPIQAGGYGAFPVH
Sequence of B-Raf V600E (P15056 whole entry V600E): as the sequence (P15056 whole entry) above, with V600E counted along it

Cn1cc(-c2cnc3[nH]cc(C(=O)c4cccc(NS(=O)(=O)c5ccc(C(F)(F)F)cc5)c4)c3c2)cn1 [P-2135, N-{3-[5-(1-Methyl-1H-pyrazol-4-yl)-1H-pyrrolo[2,3-b]pyridine-3-carbonyl]-phenyl}-4-trifluoromethyl-benzenesulfonamide]
≤ 10 µM: Fms | TEC | Kit | Kdr | B-Raf V600E

O=C(c1cc(NS(=O)(=O)C2CCCC2)ccc1F)c1c[nH]c2ncccc12 [P-2442, Cyclopentanesulfonic acid [4-fluoro-3-(1H-pyrrolo[2,3-b]pyridine-3-carbonyl)-phenyl]-amide]
≤ 10 µM: Fms | TEC | Kdr | B-Raf V600E

COc1ccnc2[nH]cc(C(=O)c3c(F)ccc(NS(=O)(=O)CC(C)C)c3F)c12 [P-2306, 2-Methyl-propane-1-sulfonic acid [2,4-difluoro-3-(4-methoxy-1H-pyrrolo[2,3-b]pyridine-3-carbonyl)-phenyl]-amide]
not listed: Fms | Kdr
≤ 10 µM: all other assays above

O=C(c1cc(NS(=O)(=O)c2cccc(Cl)c2)ccc1F)c1c[nH]c2ncc(Cl)cc12 [P-2111, 3-Chloro-N-[3-(5-chloro-1H-pyrrolo[2,3-b]pyridine-3-carbonyl)-4-fluoro-phenyl]-benzenesulfonamide]
≤ 10 µM: Fms | TEC | Kit | Kdr | B-Raf V600E

COc1ccnc2[nH]cc(C(=O)c3c(F)ccc(NS(=O)(=O)CCC(F)(F)F)c3F)c12 [P-2330, 3,3,3-Trifluoro-propane-1-sulfonic acid [2,4-difluoro-3-(4-methoxy-1H-pyrrolo[2,3-b]pyridine-3-carbonyl)-phenyl]-amide]
≤ 10 µM: Src | C-Raf | TEC | B-Raf V600E | B-Raf

CCC(C)S(=O)(=O)Nc1ccc(F)c(C(=O)c2c[nH]c3nccc(OC)c23)c1F (stereo not drawn) [P-2313, Butane-2-sulfonic acid [2,4-difluoro-3-(4-methoxy-1H-pyrrolo[2,3-b]pyridine-3-carbonyl)-phenyl]-amide]
not listed: Fms | Kit
≤ 10 µM: all other assays above

COc1ccnc2[nH]cc(C(=O)c3c(F)ccc(NS(=O)(=O)N4CCCC4)c3F)c12 [P-2377, Pyrrolidine-1-sulfonic acid [2,4-difluoro-3-(4-methoxy-1H-pyrrolo[2,3-b]pyridine-3-carbonyl)-phenyl]-amide]
not listed: Fms | Kit
≤ 10 µM: all other assays above

Cn1cc(-c2cnc3[nH]cc(C(=O)c4cccc(NS(=O)(=O)c5ccc(OC(F)(F)F)cc5)c4)c3c2)cn1 [P-2132, N-{3-[5-(1-Methyl-1H-pyrazol-4-yl)-1H-pyrrolo[2,3-b]pyridine-3-carbonyl]-phenyl}-4-trifluoromethoxy-benzenesulfonamide]
≤ 10 µM: Fms | TEC | Kit | Kdr | B-Raf V600E

Cn1cc(-c2cnc3[nH]cc(C(=O)c4cccc(NS(=O)(=O)c5cccc(OC(F)(F)F)c5)c4)c3c2)cn1 [P-2133, N-{3-[5-(1-Methyl-1H-pyrazol-4-yl)-1H-pyrrolo[2,3-b]pyridine-3-carbonyl]-phenyl}-3-trifluoromethoxy-benzenesulfonamide]
≤ 10 µM: Fms | TEC | Kit | Kdr | B-Raf V600E

O=C(c1cc(NS(=O)(=O)c2cccc(Cl)c2)ccc1F)c1c[nH]c2ncccc12 [P-2118, 3-Chloro-N-[4-fluoro-3-(1H-pyrrolo[2,3-b]pyridine-3-carbonyl)-phenyl]-benzenesulfonamide]
≤ 10 µM: Fms | TEC | Kit | Kdr

CCCS(=O)(=O)Nc1ccc(F)c(C(=O)c2c[nH]c3ncc(-c4ccccc4Cl)cc23)c1F [P-2212, Propane-1-sulfonic acid {3-[5-(2-chloro-phenyl)-1H-pyrrolo[2,3-b]pyridine-3-carbonyl]-2,4-difluoro-phenyl}-amide]
≤ 10 µM: Fms | TEC | Kdr | B-Raf V600E | B-Raf

O=C(c1cc(NS(=O)(=O)C2CCCCC2)ccc1F)c1c[nH]c2ncccc12 [P-2441, Cyclohexanesulfonic acid [4-fluoro-3-(1H-pyrrolo[2,3-b]pyridine-3-carbonyl)-phenyl]-amide]
≤ 10 µM: Fms | TEC | Kit

COc1ccnc2[nH]cc(C(=O)c3c(F)ccc(NS(=O)(=O)N(C)C)c3F)c12 [P-2376, N,N-dimethylamino-sulfonic acid [2,4-difluoro-3-(4-methoxy-1H-pyrrolo[2,3-b]pyridine-3-carbonyl)-phenyl]-amide]
not listed: Fms | Kit
≤ 10 µM: all other assays above

COc1ccnc2[nH]cc(C(=O)c3c(F)ccc(NS(=O)(=O)c4ccc(F)cc4)c3F)c12 [P-2027, N-[2,4-Difluoro-3-(4-methoxy-1H-pyrrolo[2,3-b]pyridine-3-carbonyl)-phenyl]-4-fluoro-benzenesulfonamide]
not listed: Fms
≤ 10 µM: all other assays above

O=C(c1c(F)ccc(NS(=O)(=O)C2CCCC2)c1F)c1c[nH]c2ncc(Cl)cc12 [P-2358, Cyclopentanesulfonic acid [3-(5-chloro-1H-pyrrolo[2,3-b]pyridine-3-carbonyl)-2,4-difluoro-phenyl]-amide]
not listed: Fms
≤ 10 µM: all other assays above

N#Cc1cnc2[nH]cc(C(=O)c3c(F)ccc(NS(=O)(=O)C4CCCC4)c3F)c2c1 [P-2359, Cyclopentanesulfonic acid [3-(5-cyano-1H-pyrrolo[2,3-b]pyridine-3-carbonyl)-2,4-difluoro-phenyl]-amide]
not listed: Fms
≤ 10 µM: all other assays above

COc1ccnc2[nH]cc(C(=O)c3c(F)ccc(NS(=O)(=O)C4CCCCC4)c3F)c12 [P-2361, Cyclohexanesulfonic acid [2,4-difluoro-3-(4-methoxy-1H-pyrrolo[2,3-b]pyridine-3-carbonyl)-phenyl]-amide]
not listed: Fms | Kdr
≤ 10 µM: all other assays above

CCCS(=O)(=O)Nc1ccc(F)c(C(=O)c2c[nH]c3ncc(-c4ccc(O)cc4)cc23)c1F [P-2198, Propane-1-sulfonic acid {2,4-difluoro-3-[5-(4-hydroxy-phenyl)-1H-pyrrolo[2,3-b]pyridine-3-carbonyl]-phenyl}-amide]
≤ 10 µM: Fms | TEC | B-Raf V600E | B-Raf
